From patent publication US20030186410A1, “Novel (r)-2-hydroxy-3-phenylpropionate (d-phenyllactate) dehydrogenase and gene encoding the same” (priority 2000, published 2003)

Test system: D-PLDH
Assay: Relative enzyme activity of partially purified enzyme solution with different reaction substrates
Type: biochemical, Mycelia sterilia
Details: partially purified enzyme solution (Mono Q10/10) from pDPLDH-1-carrying E. coli, compound used as reaction substrate
Description: A 150 μl portion of buffer solution A containing 250 μM NADPH and 250 μM phenylpyruvic acid was dispensed into wells of a 96-well microtiter plate, 50 μl each of the crude enzyme solution was added and mixed immediately using a pipette, and a change in absorption at 340 nm at 26° C. was measured. The measurement was carried out using an Absorption Microassay Reader BioLumin 960 (Molecular Dynamics) to trace a decrease in absorption with time after the start of the reaction. The amount of the enzyme which oxidized 1 μmol of NADPH per minute was set to be one unit. Results are shown in Table 1 as the enzyme activity of the crude enzyme solution.
Further, the obtained crude enzyme solution was processed using Mono Q10/10 under the conditions described in Example 1-2 to prepare a partially purified enzyme solution. This partially purified enzyme solution was applied onto a 96-well microtiter with different concentrations of the substrate, phenylpyruvic acid, to measure enzyme activity. Further, enzyme activity was also measured with an alternative substrate, pyruvic acid, in place of phenylpyruvic acid. […]

O=C(O)C(=O)Cc1ccccc1 [Phenylpyruvic acid, 2-oxo-3-phenylpropionic acid]
Relative reaction rate (rate with phenylypyruvic acid = 100): 100

CC(=O)C(=O)O [Pyruvic acid]
Relative reaction rate (rate with phenylypyruvic acid = 100): 10
